Test system: heparinized whole blood
Assay: Ex vivo induction of immune-function-related mRNA in heparinized whole blood, real time PCR
Assay type: cell-based
Settings: 37° C., 4 hours, vs PBS

Substance: leucoagglutinin [PHA-L]
- CCL4 mRNA induction: induced
- CTLA4 mRNA induction: induced
- CXCL3 mRNA induction: induced
- CXCL10 mRNA induction: induced
- GMCSF mRNA induction: induced
- IFNG mRNA induction: induced
- IL4 mRNA induction: induced
- IL10 mRNA induction: induced
- TNFSF2 mRNA induction: induced
- beta actin (ACTB) mRNA induction (control housekeeping gene): not induced

Source: patent publication US20150218638A1, “METHODS FOR ASSESSMENT OF PEPTIDE-SPECIFIC IMMUNITY” (priority 2012, published 2015)
